In PMC8279406 (Journal of Medicinal Chemistry, 2021):

What was measured:
alphaVbeta5 = alphaVbeta5 (Homo sapiens, UniProt P06756+P18084); experiment: alphaVbeta5 binding affinities (supplementary CSV only); settings: unit inferred
Source text: Supplement jm1c00533_si_002.csv, table | column: alphaVbeta5 Binding affinities (IC50)

[1] = tested on: recombinant R8102 HSV-1 strain; experiment: Infection neutralization assay, 293T cells, R8102 HSV-1, β-galactosidase readout; type: cell-based; settings: for effect on HSV-1 infection (in words): increasing concentrations, 1 h prior to infection and 90 min during attachment
Source text: The binding of HSV-1 gH/gL to either αvβ6 or αvβ8 results in the dissociation of gL from the heterodimer, which, in turn, can favor HSV entry into cells.[27] […] R1.302, a nectin1-neutralizing mAb, was used as a positive control. In the first set of experiments, 293T cells, expressing both the αvβ6 and αvβ8 integrins, were alternatively exposed to increasing concentrations of the integrin-binding peptides and R1.302 before and during the infection by the recombinant R8102 HSV-1 strain. This virion carries, indeed, a lacZ reporter gene under the control of the α27 promoter, whose expression analysis allows for readily quantifying the infectivity.[59] […] Remarkably, these preliminary results were in agreement with the known interchangeable and additive roles played by αvβ6 and αvβ8 integrins upon HSV-1 infection.[26]
Figure 3 Inhibition of HSV-1 infection. 293T cells were exposed to increasing concentrations of the indicated peptides for 1 h prior to infection and during virus attachment for another 90 min. Infection was induced using the recombinant R8102 HSV-1 strain and measured after 8 h as β-galactosidase activity, using o-nitrophenyl-D-galactopyranoside (ONPG) as a substrate. The assays were run in triplicate. Bars show standard deviation (SD).
The experiments were performed using 293T cells in 96-well plates with extracellular virions of R8102 at an input multiplicity of infection of 5 PFU/cell. Cells were exposed to increasing concentrations of the peptides for 1 h at 37 °C, and the viral inoculum was added in the presence of peptides for 90 min at 37 °C. After the removal of the inoculum and rinsing with DMEM containing 1% FBS, the cells were incubated without peptides for 8 h. The same protocol was followed for R1.302 mAb that was used as a positive control. The infection was quantified as β-Gal activity using o-nitrophenyl-D-galactopyranoside (ONPG) as a substrate.[86]

integrin β6 = tested on: T1, integrin β6; experiment: Integrin internalization assay, surface integrin β6 by flow cytometry; type: cell-based, human; settings: J cells with nectin1, αvβ6 and αvβ8, 700 μM, 1 h at 37 °C
T1 construct: expressed in transfected cells; host or cells: J cells (derivatives of BHK-TK2 hamster cells)
Source text: Therefore, another mechanism might be responsible for the activity of 6 on J cells expressing αvβ8 integrin alone as well as the higher activity of 6 than that of 1 in cells that express both αvβ6 and αvβ8.[38] Thus, we hypothesized that 6 can prevent HSV-1 entry into J cells expressing nectin1 and the αvβ8 integrin alone by inducing internalization of the integrin itself. To validate our hypothesis, J cells were transfected with nectin1 and the two integrins αvβ6 and αvβ8 in the above-described manner. Then, 48 h after transfection, the cells were incubated for 60 min at 37 °C with 1 or 6. The surface expression of integrin β6 and β8, in the presence or the absence of peptides, was then evaluated by flow cytometry using FAB4155A (mAbβ6) and FAB4775A (mAbβ8) monoclonal antibodies that recognize other integrin regions than the RGD-binding domain.
Figure 5 Integrin internalization assay. J cells were transfected with a low amount (75 ng of DNA/24 well) of nectin1 plus αvβ6 integrin (300 ng of DNA/24 well) and αvβ8 integrin (300 ng of DNA/24 well). Then, 48 h after transfection, the cells were exposed to 700 μM peptides for 1 h at 37 °C. […] Integrin and nectin1 surface expression levels were quantified as flow cytometry expression of the APC mean fluorescence intensity (MFI) of gated cells. […]

gHsolST = experiment: gH binding assay, gHsolST binding to transfected J cells; type: cell-based, HSV-1; settings: J cells with nectin1, αvβ6 and αvβ8, 700 μM peptide, 2 μM gHsolST
Experimental: To further verify this hypothesis, the soluble form of gH (gHsolST) was used in a soluble protein in the cell-binding assay on J cells transfected with nectin1 and the αvβ6 and αvβ8 integrins, treated or untreated with each peptide.
Figure 6 gH binding assay. J cells were transfected with a low amount (75 ng of DNA/24 well) of nectin1 plus αvβ6 integrin (300 ng of DNA/24 well) and αvβ8 integrin (300 ng of DNA/24 well). Then, 48 h after transfection, the cells were exposed to 700 μM peptides for 1 h at 37 °C. Cells derived from samples treated or not treated with peptides were incubated for 1 h at 4 °C with gHsolST or gBsolST. Samples were washed and subsequently incubated for 1 h at 4 °C with phycoerythrin (PE)-conjugated mAb to the One-STrEP tag (Strep-Tactin). gHsolST and gBsolST binding to the cell surface were quantified as the flow cytometry expression of the PE mean fluorescence intensity (MFI) of gated cells. Histograms represent the average of triplicates ± SD.
The remaining half of the samples were used for the gH binding assay. […] Control cells were incubated with 2 μM gBsolST in 100 μL of the same buffer used for gHsolST and the binding of soluble protein was detected as described for the gH binding assay. Cells were analyzed by cytofluorimetric analyses using an AccuriC6 flow cytometer (Becton Dickinson). […]

Sequence of alphaVbeta5 (P06756 31-1048): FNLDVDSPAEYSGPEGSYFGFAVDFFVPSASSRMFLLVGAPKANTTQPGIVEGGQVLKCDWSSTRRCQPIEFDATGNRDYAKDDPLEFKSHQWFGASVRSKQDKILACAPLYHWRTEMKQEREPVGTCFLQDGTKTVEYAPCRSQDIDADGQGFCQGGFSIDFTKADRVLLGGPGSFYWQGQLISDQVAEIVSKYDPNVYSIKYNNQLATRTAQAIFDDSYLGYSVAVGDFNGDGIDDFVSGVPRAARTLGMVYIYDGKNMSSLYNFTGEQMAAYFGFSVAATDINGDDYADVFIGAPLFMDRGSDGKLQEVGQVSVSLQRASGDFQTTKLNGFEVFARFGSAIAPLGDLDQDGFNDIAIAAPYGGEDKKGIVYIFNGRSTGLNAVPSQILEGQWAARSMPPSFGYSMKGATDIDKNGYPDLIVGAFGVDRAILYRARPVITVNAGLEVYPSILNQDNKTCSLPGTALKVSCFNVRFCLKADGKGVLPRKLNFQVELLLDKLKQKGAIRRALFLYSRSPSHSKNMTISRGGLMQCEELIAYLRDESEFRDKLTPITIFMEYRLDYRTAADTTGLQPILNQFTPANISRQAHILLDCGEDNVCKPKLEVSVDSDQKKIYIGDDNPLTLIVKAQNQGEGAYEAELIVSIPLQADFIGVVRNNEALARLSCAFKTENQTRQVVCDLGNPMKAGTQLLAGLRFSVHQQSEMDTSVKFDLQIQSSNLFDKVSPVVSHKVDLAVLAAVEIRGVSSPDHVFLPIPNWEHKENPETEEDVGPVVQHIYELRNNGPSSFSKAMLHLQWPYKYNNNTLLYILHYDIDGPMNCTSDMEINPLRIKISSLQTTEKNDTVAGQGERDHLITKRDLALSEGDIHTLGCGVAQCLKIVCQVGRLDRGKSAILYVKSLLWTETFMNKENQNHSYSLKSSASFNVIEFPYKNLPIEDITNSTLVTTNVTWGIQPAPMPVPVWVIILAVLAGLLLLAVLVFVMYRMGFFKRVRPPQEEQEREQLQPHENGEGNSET
Sequence of alphaVbeta5 (P18084 24-799): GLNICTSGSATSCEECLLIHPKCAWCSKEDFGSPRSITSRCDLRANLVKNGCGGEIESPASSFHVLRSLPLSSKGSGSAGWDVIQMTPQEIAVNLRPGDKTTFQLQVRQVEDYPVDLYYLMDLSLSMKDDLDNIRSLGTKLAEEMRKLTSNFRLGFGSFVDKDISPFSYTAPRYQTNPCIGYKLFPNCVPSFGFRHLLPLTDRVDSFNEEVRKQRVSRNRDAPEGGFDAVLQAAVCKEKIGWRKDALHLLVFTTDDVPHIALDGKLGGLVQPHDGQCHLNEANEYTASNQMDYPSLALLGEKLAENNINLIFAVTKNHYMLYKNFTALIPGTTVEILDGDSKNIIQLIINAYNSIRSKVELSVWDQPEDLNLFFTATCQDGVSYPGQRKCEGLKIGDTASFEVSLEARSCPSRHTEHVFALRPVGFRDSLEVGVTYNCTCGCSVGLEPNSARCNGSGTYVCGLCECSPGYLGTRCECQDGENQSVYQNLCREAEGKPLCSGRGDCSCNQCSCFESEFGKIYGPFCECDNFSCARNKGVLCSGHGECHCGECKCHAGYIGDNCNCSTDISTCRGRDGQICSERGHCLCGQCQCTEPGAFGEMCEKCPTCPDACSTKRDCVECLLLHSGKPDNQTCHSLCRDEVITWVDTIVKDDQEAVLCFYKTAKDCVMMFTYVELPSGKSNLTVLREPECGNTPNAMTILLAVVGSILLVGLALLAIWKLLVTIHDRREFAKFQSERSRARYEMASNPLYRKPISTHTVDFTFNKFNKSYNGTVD

## N=C(N)NCCC[C@@H]1NC(=O)CC[C@@H](C(N)=O)NC(=O)[C@H](C2CCCCC2)NC(=O)[C@H](CC(=O)O)NC(=O)CNC1=O [compound 1, [Arg-Gly-Asp-Chg-Glu]-CONH2]
alphaVbeta5
  IC50: > 5 µM
[1]; 700 μM
  inhibition of HSV infection: 40%
[1]; at 1000 μM
  maximum inhibition of HSV-1 infection: 50%
[1]
  effect on HSV-1 infection (in words): able to inhibit HSV-1 infection in a dose-dependent manner
Integrin β6
  membrane expression of integrin β6 (in words): reduced
gHsolST
  binding of gHsolST to cells (in words): only partially reduced

## CN1C(=O)[C@H](C2CCCCC2)NC(=O)[C@H](CC(=O)O)NC(=O)CNC(=O)[C@H](CCCNC(=N)N)NC(=O)CC[C@H]1C(N)=O [compound 6, [Arg-Gly-Asp-Chg-(NMe)Glu]-CONH2]
alphaVbeta5
  IC50: > 5 µM
[1]
  effect on HSV-1 infection (in words): able to inhibit HSV-1 infection in a dose-dependent manner
Integrin β6
  membrane expression of integrin β6 (in words): reduced
gHsolST
  binding of gHsolST to cells (in words): strongly reduced
